Results as given in patent publication US11345658B2, “Compounds and compositions comprising the same for treating hypertension or heart failure” (QUANTUM GENOMICS, priority 2019, dated 2022).

Experiments:
recombinant mouse APA = target: T1, recombinant mouse APA (Mus musculus, UniProt P16406); experiment: Measurement of APA activity in vitro (GluβNa hydrolysis, microplate); assay type: biochemical; conditions: 200 μM Glu-βNa, pH 7.4, 37° C., dithiothreitol, 4 mM CaCl2
T1 sequence (P16406 1-945): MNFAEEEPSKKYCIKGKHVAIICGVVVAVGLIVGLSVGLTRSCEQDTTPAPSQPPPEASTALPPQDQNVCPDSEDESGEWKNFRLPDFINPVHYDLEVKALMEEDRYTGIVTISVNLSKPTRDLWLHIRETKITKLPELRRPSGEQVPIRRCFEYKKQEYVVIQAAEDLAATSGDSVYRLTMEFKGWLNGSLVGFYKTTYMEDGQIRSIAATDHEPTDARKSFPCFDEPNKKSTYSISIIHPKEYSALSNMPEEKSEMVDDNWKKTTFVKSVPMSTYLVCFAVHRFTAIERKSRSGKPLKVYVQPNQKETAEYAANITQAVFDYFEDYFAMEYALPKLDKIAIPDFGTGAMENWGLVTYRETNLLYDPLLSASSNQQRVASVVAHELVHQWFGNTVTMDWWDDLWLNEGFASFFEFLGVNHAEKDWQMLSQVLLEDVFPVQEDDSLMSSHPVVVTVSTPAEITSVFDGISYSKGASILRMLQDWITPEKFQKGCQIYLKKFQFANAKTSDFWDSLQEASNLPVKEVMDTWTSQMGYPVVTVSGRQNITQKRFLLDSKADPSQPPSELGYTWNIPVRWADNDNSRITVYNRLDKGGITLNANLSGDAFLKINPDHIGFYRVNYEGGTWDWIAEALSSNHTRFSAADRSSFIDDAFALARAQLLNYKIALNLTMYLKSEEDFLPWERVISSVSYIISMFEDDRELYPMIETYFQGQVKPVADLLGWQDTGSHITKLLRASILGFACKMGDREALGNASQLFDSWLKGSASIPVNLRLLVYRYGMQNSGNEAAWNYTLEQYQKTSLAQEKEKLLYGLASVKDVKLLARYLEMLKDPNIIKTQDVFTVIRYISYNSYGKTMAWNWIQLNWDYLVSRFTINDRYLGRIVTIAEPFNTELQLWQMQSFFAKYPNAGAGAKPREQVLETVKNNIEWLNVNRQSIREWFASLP
Source text: Measurement of APA activity in vitro is based on the protocol of Goldbarg adjusted to the scale of assaying on microplates (Pro Bind™ 3915) (Chauvel et al., 1994). In vitro, in the presence of calcium ions, APA hydrolyses a synthetic substrate α-L-glutamyl-β-naphthylamide (GluβNa) to glutamate and β-naphthylamine ([…]). A diazotation reaction in acidic medium makes it possible to reveal the β-naphthylamine by formation of a violet-colored complex: spectrophotometric measurement then makes it possible to know the amount of complex formed and, by reference to a standard curve produced with increasing concentrations of β-naphthylamine, to deduce the enzymatic activity of the sample.
The Glu-βNa substrate (Bachem) and the β-naphthylamine (Sigma) are dissolved in 50% DMSO (dimethyl sulphoxide) and 0.1 N HCl respectively, and conserved at −20° C. at a concentration of 10^−2 M. The diazotation reaction is carried out in the presence of sodium nitrite (87 mM), ammonium sulfamate (130 mM) and N-(1-naphthyl)-ethylenediamine dihydrochloride (23 mM in 95% ethanol). […]
The absorbance is then measured at 540 nm. […]

brain APA [1] = target: T2, brain APA (Mus musculus, UniProt P16406); experiment: Measurement of brain APA activity ex vivo after i.v. administration in mice; conditions: 50 mg/kg i.v., 180 min after administration
T2 construct: from tissue; host or cells: mouse brain homogenate
T2 sequence (P16406 1-945): T1 sequence (P16406 1-945)
Protocol: (§1) Brain APA activity was determined as described above
In vivo, in mice (male, 18-20 g Charles River), Example 1 was administered i.v. (50 mg/kg, in a volume of 200 μL).
(§2) For each condition, four to sixteen mice and five to seven rats were used. Animals were sacrificed 180 min after the administration. The brains were immediately removed and homogenized by sonication in 10 vol of ice-cold 50 mM Tris-HCl buffer (pH 7.4). APA enzymatic activity was measured on brain homogenates. For this purpose, aliquots of the tissue homogenate (16 μL) were incubated for 30 min at 37° C. with 200 μM of Glu-βNa, 4 mM CaCl2, and 1 μM bestatin inhibitor, with or without 5 μM EC33, in a total volume of 100 μL of 50 mM Tris-HCl buffer (pH 7.4). Then the assay was pursued as described above.

brain APA [2] = target: T3, brain APA (Rattus norvegicus, UniProt P50123); experiment: Measurement of brain APA activity ex vivo after p.o. administration in DOCA-salt rats; conditions: 8 mg/kg p.o., 180 min after administration
T3 construct: from tissue; host or cells: DOCA-salt rat brain homogenate
Protocol: as §1
In vivo, in DOCA-salt rats (male, 250 g Charles River), Example 2 was administered p.o. (8 mg/kg, in a volume of 400 μL).
as §2

[3] = tested on: hypertensive DOCA-salt rats; experiment: Measurement of mean arterial blood pressure (MABP) and heart rate (HR) in conscious hypertensive DOCA-salt rats; assay type: in vivo; conditions: 8 mg/kg p.o.
Protocol: Male DOCA-salt rats were anesthetized with 3% isoflurane (Iso-vet®, Piramal, UK) for induction and 1.5-2% isoflurane for maintenance. A catheter was inserted into the right femoral artery to monitor MABP and HR. The catheter was tunneled subcutaneously to exit from the neck. Animals were maintained for 2 days in the animal room, under frequent observation, before MABP and HR recording. Baseline MABP and HR were recorded for at least 60 min before Example 2 was administered p.o. (8 mg/kg, in a volume of 400 μL). MABP and HR were recorded continuously for 6 h after treatment.

post-MI mice = experiment: Left ventricular ejection fraction (LVEF) by echocardiography in mice post myocardial infarction; assay type: in vivo, CD1 mice; conditions: mice 4 weeks post MI, Mean±SEM
Protocol: Adult male CD1 mice were anesthetized with a mixture of 100 mg/kg ketamine (Imalgene 1000, Merial, Lyon, France) and 10 mg/kg xylazine (Rompun 2%, Bayer Healthcare, Loos, France), via intraperitoneal injection, intubated and ventilated at a rate of 200 insufflations/min, with a mean insufflate volume of 0.2 mL (Bioseb, France). The skin was disinfected and incised between the 2nd and 3rd intercostal space and the heart was exposed by left thoracotomy. Pericardium was opened and the left anterior descending (LAD) coronary artery infarction was permanently ligatured between the pulmonary artery trunk and the left atrial appendage, with 8/0 […] suture. (PVDF monofilament, 8-0, Peters Surgical, Bobigny, France). Ischemia was confirmed by visible left ventricle (LV) bleaching under the ligature. The thorax was then closed by three discontinuous points (PVDF monofil, 6/0, Peters Surgical, Bobigny, France) then mice received a subcutaneously injection of Meloxicam 1 mg/kg (Metacam, Boehringer Ingelheim, Germany) for prolonged analgesia. The pneumothorax was drained. The muscles and skin were then sutured (prolene thread 6-0, Peters Surgical, France) and the animals were rehydrated with saline at 37° C. Animals were extubated as soon as they could breathe spontaneously. The animal was placed in a cage and monitored regularly over 48 hours. Mice received an injection of Meloxicam 1 mg/kg, 24 hours postsurgery and up to 72 hours. The same surgical procedure was performed without LAD coronary artery ligation in sham-operated mice.
Post-MI mice received chronic oral treatment firibastat (RB150 used as a reference of brain APA inhibitor) at 150 mg/kg, ramipril (ACE inhibitor as standard treatment) at 1.25 mg/kg, or example 2 at 25 mg/kg with peanut butter vehicle. […] Cardiac function was evaluated regularly by trans-thoracic echocardiography at 4 weeks post MI to analyze the effects of different chronic oral treatment on heart contractility.

T3 sequence (P50123 whole entry): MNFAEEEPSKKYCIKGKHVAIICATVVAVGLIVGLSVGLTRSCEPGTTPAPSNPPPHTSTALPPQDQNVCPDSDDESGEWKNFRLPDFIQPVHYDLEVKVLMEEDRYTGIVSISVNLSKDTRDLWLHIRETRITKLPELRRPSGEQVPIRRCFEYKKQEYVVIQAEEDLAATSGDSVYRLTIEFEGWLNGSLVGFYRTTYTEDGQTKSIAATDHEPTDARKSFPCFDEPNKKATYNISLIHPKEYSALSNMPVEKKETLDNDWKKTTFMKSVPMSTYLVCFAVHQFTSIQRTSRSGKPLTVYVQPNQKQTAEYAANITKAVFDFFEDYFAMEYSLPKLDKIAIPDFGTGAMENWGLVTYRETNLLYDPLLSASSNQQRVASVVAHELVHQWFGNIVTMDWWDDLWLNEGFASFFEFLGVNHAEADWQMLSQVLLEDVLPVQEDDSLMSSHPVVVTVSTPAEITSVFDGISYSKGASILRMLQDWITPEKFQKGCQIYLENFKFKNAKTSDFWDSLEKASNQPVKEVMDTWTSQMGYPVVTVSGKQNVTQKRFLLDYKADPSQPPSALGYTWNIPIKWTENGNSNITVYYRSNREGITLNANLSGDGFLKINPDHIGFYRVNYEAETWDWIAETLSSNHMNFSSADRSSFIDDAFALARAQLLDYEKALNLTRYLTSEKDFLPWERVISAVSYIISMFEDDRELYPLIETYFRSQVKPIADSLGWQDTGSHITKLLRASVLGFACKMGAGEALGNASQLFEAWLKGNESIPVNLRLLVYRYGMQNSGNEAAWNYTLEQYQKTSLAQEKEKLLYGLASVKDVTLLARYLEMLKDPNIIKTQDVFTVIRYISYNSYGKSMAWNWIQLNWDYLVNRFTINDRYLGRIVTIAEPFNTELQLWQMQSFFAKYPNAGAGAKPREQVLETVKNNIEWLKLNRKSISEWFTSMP

N[C@@H](CCS(=O)(=O)O)CSSC[C@H](N)C(=O)O [Example 1, (2R)-2-amino-3-{[(2S)-2-amino-4-sulfobutyl]disulfanyl}propanoic acid]
In vitro inhibition of aminopeptidase A, Results (recombinant mouse APA): 0.81 ± 0.05 µM | brain APA activity (brain APA [1]; brain homogenate): 39.6±5.2 nmol of Glu-βNa hydrolyzed per mg of protein per h | decrease of brain APA activity (brain APA [1]; vs. control): 45%

N[C@@H](CSS[C@@H](CCc1ccccc1)[C@@H](N)CCS(=O)(=O)O)C(=O)O [Example 2, (2R)-2-amino-3-{[(3S,4S)-4-amino-1-phenyl-6-sulfohexan-3-yl]disulfanyl}propanoic acid]
In vitro inhibition of aminopeptidase A, Results (recombinant mouse APA): 0.18 ± 0.02 µM | brain APA activity (brain APA [2]; brain homogenate): 46.1±2.4 nmol of Glu-βNa hydrolyzed per mg of protein per h | decrease of brain APA activity (brain APA [2]; vs. control): 29% | effect on HR ([3]; 0 to 6 h after administration): no effect | decrease in MABP ([3]; 3 h after administration): −27±11 mmHg | decrease in MABP ([3]; 6 h after treatment): −44±8 mmHg | LVEF (post-MI mice; chronic oral 25 mg/kg once daily for 4 weeks): 50.6±0.9%

N[C@@H](CCS(=O)(=O)O)CSSC[C@@H](N)CCS(=O)(=O)O [firibastat]
LVEF (post-MI mice; chronic oral 150 mg/kg once daily for 4 weeks): 50.9±1%

CCOC(=O)[C@H](CCc1ccccc1)N[C@@H](C)C(=O)N1[C@H](C(=O)O)C[C@@H]2CCC[C@@H]21 [ramipril]
LVEF (post-MI mice; chronic oral 1.25 mg/kg once daily for 4 weeks): 48.4±1.2%
